Reference: patent publication US11400130B2, “Inhibitors for proliferating cell nuclear antigen and uses” (Purdue Research Foundation, priority 2015, dated 2022)
Peptide text beside a SMILES is read from it. * marks the point of attachment. 5FAM = O=C1OC2(c3ccc(O)cc3Oc3cc(O)ccc32)c2ccc(C(=O)*)cc21; Ahx = NCCCCCC(=O)O

How the values were obtained:
PCNA [1] = target: T1, PCNA (Homo sapiens, UniProt P12004); test: Fluorescence polarization competition assay (displacement of FAM-PL from His-tagged PCNA); format: binding; conditions: for Disruption of PCNA-PL peptide binding by individual fragments: individual peptoid fragments screened alone, dose response (FIG. 7); for Ki: calculated from IC50 using equation 5 (modified Cheng-Prusoff), 95% confidence interval around the mean; for IC50: disruption of PCNA / FAM-PL binding, values are 95% confidence interval around the mean
T1 construct: made in house; host or cells: E. coli BL21 (DE3)
T1 sequence (P12004 with tags, fused parts or gaps): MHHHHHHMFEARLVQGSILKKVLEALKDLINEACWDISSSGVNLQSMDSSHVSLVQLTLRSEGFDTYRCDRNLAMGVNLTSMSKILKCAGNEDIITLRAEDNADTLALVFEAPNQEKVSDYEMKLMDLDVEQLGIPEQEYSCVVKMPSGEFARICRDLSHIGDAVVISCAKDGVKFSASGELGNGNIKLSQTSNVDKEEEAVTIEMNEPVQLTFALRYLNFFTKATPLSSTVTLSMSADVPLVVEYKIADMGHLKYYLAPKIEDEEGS
Procedure: The inclusion of PCNA was included in the overall calculations of Ki values.
Anisotropy was converted to fractional occupancy, and IC50 values were determined for each peptoid by performing non-linear regression fits of each dose response curve using equation 4. Inhibition constants (Ki values) were calculated from the resultant IC50 values using equation 5 (Table 2).
Fluorescence Polarization Competition Assay. […] The plate was allowed to incubate at room temperature in the dark for 30 minutes prior to fluorescent measurement. […] Anisotropy values were converted to fractional occupancy using equation 2, and IC50 values were calculated by fitting the data to equation 4:
[formula] wherein n is the Hill slope.

PCNA [2] = target: T1, PCNA; test: Fluorescence polarization binding assay (PCNA titration for affinity of FAM-PL); conditions: fixed FAM-PL (5 nM), two-fold increasing recombinant His-tagged PCNA, non-linear regression; read-out: Kd of FAM-PL peptide for PCNA
Procedure: After synthesis and purification, peptoids were screened in a fluorescence polarization (FP) assay to find ligands that disrupted the interaction between His-tagged PCNA and fluorescein-labeled Pogo Ligase peptide (FAM-PL) (Kontopidis, G., et al. Proc. Natl. Acad. Sci. U.S.A 2005, 102 (6), 1871-1876). In the design of the assay, conditions were adopted from Pedley et al., 2016, to improve the dynamic range between bound and unbound FAM-PL. While an acceptable Z-score was determined using the original 10 nM peptide and 100 nM PCNA (FIG. 4), an improved dynamic range was established by adjusting the ligand and receptor concentrations. […] Because more than 80% of the peptide was bound at a PCNA concentration of […] this protein-receptor concentration was selected for use in subsequent displacement assays. The inclusion of PCNA was included in the overall calculations of Ki values.
Fluorescence Polarization Binding Assay. […] Fluorescence polarization and resultant anisotropy were measured on a BioTek Synergy 4 Multi-Detection Microplate Reader using an excitation filter of 485 nm and an emission filter of 530 nm, each with a 20 nm band-pass. […]
FO values were analyzed using non-linear regression statistics in OriginPro 2015, representing them as the mean±standard error of the mean (Y), and plotting them as a function of the monomeric PCNA protein concentration (X). […]

Row | Structure (SMILES) | Kd (PCNA [2]) [µM] | Ki (PCNA [1]) [µM] | IC50 (PCNA [1]) [µM] | Disruption of PCNA-PL peptide binding by individual fragments (PCNA [1])
1 | CC(C)(C)[Si](C)(C)OCc1ccc(CN)cc1 [NBal] |  |  |  | none of the fragments showed any evidence of inhibition
2 | CC[C@H](C)[C@H](NC(=O)[C@H](CCCCN)NC(=O)[C@H](CCCCN)NC(=O)[C@H](CCC(N)=O)NC(=O)[C@H](CC(C)C)NC(=O)[C@@H](NC(=O)[C@H](C)NC(=O)[C@H](CO)NC(=O)CCCCCNC(=O)c1ccc2c(c1)C(=O)OC21c2ccc(O)cc2Oc2cc(O)ccc21)C(C)C)C(=O)N[C@H](C(=O)N[C@@H](CC(=O)O)C(=O)N[C@@H](Cc1ccc(O)cc1)C(=O)N[C@@H](Cc1ccccc1)C(=O)N[C@@H](Cc1c[nH]cn1)C(=O)N1CCC[C@H]1C(=O)N[C@@H](CCCCN)C(=O)N[C@@H](CCCCN)C(N)=O)[C@@H](C)O [FAM-PL] ({5FAM-Ahx}-SAVLQKKITDYFHPKK-NH2) | 0.107 |  |  | 
3 | NCCO [NEal, ethanol amine] |  |  |  | none of the fragments showed any evidence of inhibition
4 | NCCCCNCC(=O)N(CC(=O)N(CC(N)=O)Cc1ccc(CN)cc1)Cc1ccc2c(c1)OCO2 [NLys-NPip-NMma] |  | 1.24 ± 0.19 | 12.9 ± 1.97 | 
5 | CC(C)(C)OC(=O)c1ccc(CN)cc1 [NBza] |  |  |  | none of the fragments showed any evidence of inhibition

Further lines, with some results ahead:

Row | Kd (PCNA [2]) [µM] | Ki (PCNA [1]) [µM] | IC50 (PCNA [1]) [µM] | Structure (SMILES) | Disruption of PCNA-PL peptide binding by individual fragments (PCNA [1])
6 |  | 0.114 ± 0.0231 | 1.18 ± 0.24 | NCc1ccc(CN(CC(N)=O)C(=O)CN(CCO)C(=O)CN[C@H](CO)Cc2cc(I)c(Oc3ccc(O)cc3)c(I)c2)cc1 [T2AA-NEal-NMma] | 
7 |  | 1.12 ± 0.245 | 11.7 ± 2.55 | NCc1ccc(CNCC(=O)N(CC(=O)N(CC(N)=O)Cc2ccc(CO)cc2)Cc2ccc3c(c2)OCO3)cc1 [NMma-NPip-NBal] | 
